Experimental data reported in patent US20240238422A1 (Osprey Biopharmaceuticals, Inc., priority 2021, published 2024).
pKd: −log10 of the molar value. Entries after “also recorded” stand apart in the source; their conditions may differ.

Key:
C57BL/6 mice [1] = test: Anti-drug antibody (serum IgG titer) response to adalimumab and conjugates in mice; format: in vivo, mouse
Description: To evaluate the production of antibodies specific to adalimumab and/or adalimumab-Siglec Ligand conjugates, C57BL/6 mice were immunized through intravenous injection with adalimumab or Siglec Ligand-conjugated adalimumab. On study day −1, animals were randomized into treatment groups based on body weight. On study day 0, animals were bled for baseline serum and then injected IV with adalimumab or the adalimumab-Siglec Ligand conjugates. The individual antigens were prepared by making a 0.8 mg/ml antigen solution in sterile buffered saline. Animals were then injected with 0.1 ml (^˜4 ml/kg) of the 0.8 mg/ml antigen via the tail vein. The total dose based on a 20 g mouse would be 4 mg/kg. Animals were bled via the retro-orbital sinus weekly throughout the study under inhaled isoflurane anesthesia. On study day, 28 animals were anesthetized with inhaled isoflurane anesthesia and then bled via cardiac puncture and then sacrificed by cervical dislocation. […]
ADA assays were performed on 96-well assay plates (Nunc Plates, Black 96-Well Immuno Plates, Thermo Scientific, 437111) coated with antigen, as follows. […] The excitation and emission settings for the QuantaBlu Fluorogenic Peroxide Substrates are 325 nm and 420 nm and the relative florescence units were measured using a SpectraMax plate reader. […] Titers were determined by the dilution of serum that gives a 2× OD above background. […]

Human TNFα = Human TNFα (Homo sapiens, UniProt P01375); test: TNFα - Adalimumab/Adalimumab-Siglec Ligand Conjugate SPR Binding Assays; details: TNFα analyte, test article on Protein A chip, 1:1 binding model
Description: Binding experiments of Adalimumab Conjugates were performed on a Biacore 8K+ using a Cytiva Protein A Chip Series S (Cat #29127555). Briefly, conjugates were diluted in running buffer (HBS-EP+) and scouted for a concentration yielding about 30 RU of response after 20 seconds of injection at 30 μL/min on the active surface (flow cell 2). Human TNFα was serially diluted in running buffer 1:1 from 100 nM to 0.1953 nM and then injected across both the reference (flow cell 1) and active surface (flow cell 2) for 120 seconds at 30 μL/min and allowed to dissociate for 600 s. […] Sensorgrams were fitted to a 1:1 binding model in Biacore Insight Evaluation Software Version 3.0.11.15423.

C57BL/6 mice [2] = test: Serum IgG response to hen egg white lysozyme (HEL) in mice; format: in vivo, mouse; details: Example 20: 4 weekly 200 μg i.v. doses (days 0, 7, 14, and 21), day 27
Description: On study day −1, animals were randomized into treatment groups based on body weight. On study day 0, animals were bled for baseline serum and then injected IV with adalimumab, adalimumab-Siglec Ligand conjugate, or PBS vehicle. The individual adalimumab-based antigens were prepared by making a 0.8 mg/ml antigen solution in sterile buffered saline. Animals were then injected with 0.1 ml (^˜4 ml/kg) of the 0.8 mg/ml antigen via the tail vein. The total dose based on a 20 g mouse would be 4 mg/kg. Mice were subsequently administered 200 μg HEL on days 7, 14, and 21. Whole blood was collected into Microvette EDTA capillary collection tubes (Sarstedt Inc) and then further processed following the manufacturer's instructions for serum collection. Samples were stored at −80 C until analysis was performed.
ADA assays were performed on 96-well assay plates (Nunc Plates, Black 96-Well Immuno Plates, Thermo Scientific, 437111) coated with antigen as follows. […] The excitation and emission settings for the QuantaBlu Fluorogenic Peroxide Substrates are 325 nm and 420 nm and the relative florescence units were measured using a SpectraMax plate reader. […] Titers were determined by the dilution of serum that gives a 2× OD above background.
On study day −1, animals were randomized into treatment groups based on body weight. […] Serum IgG levels against HEL/HEL conjugate were measured at day 27. […]

Chain of Human TNFα (P01375 77-233 limits assumed): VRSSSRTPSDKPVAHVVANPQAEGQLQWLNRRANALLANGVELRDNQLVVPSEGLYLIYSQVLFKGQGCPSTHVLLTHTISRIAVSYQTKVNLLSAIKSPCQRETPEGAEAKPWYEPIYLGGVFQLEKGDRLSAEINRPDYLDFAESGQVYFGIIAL

pKd (Human TNFα)	Rmax (RU) (Human TNFα)	ka (Human TNFα)	kd (Human TNFα)	Substance	anti-drug antibody response (mouse serum IgG titer against adalimumab/adalimumab conjugates) (C57BL/6 mice [1]; Example 14: single 4 mg/kg i.v. dose, days 14, 21, and 28, GAL and PEG linkers, listed as adalimumab hIgG1, 4 mg/kg)	IgG response against adalimumab/adalimumab conjugate (C57BL/6 mice [1]; Example 19: 4 mg/kg day 0, then weekly 200 μg HEL, day 28)	IgG response to HEL/HEL conjugate (immunogenicity) (C57BL/6 mice [2])
8.84	10.6 RU	245000 M⁻¹ s⁻¹	0.000357 s⁻¹	Adalimumab	highly immunogenic in mice; also recorded: high mouse IgG serum titers	strong IgG response	
				HEL: hen egg white lysozyme (Sigma, L4919-1G), standard immunogen [reference compound]			vigorous IgG responses to HEL
				Siglec Ligand-HEL conjugates: hen egg white lysozyme conjugated with monovalent BPC-Neu5Gc PEG ligand-linker, LDR of 1.6			completely suppressed for immunogenicity
